Experimental findings from PubChem BioAssay (NCI) are described below.

Structures are written as SMILES. Where “and” joins values, the source holds several entries; their conditions need not be identical. Identical values can stand only once.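 Five concentrations, 48 hours, 96-well plates. Definition used: TGI = concentration required for complete inhibition of growth.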

Common to all, as to experiment: NCI-60 cell line screen, 48 h
Test [1] relates to OVCAR-4 ovarian.
The test system of test [2] is MDA-MB-231 breast.
Test [3] has as its system OVCAR-8 ovarian.
Test [4] relates to SN12C renal.
Test [5] relates to MDA-MB-435.
Test [6] has as its system HL-60(TB) leukemia.
Test [7] relates to HOP-92 NSCLC.
Test [8] relates to UO-31 renal.
Test [9] concerns SK-MEL-28 melanoma.
In test [10] the test system is BT-549 breast.
Test [11] has as its system TK-10 renal.
In test [12] the test system is A549 NSCLC.
Test [13] relates to SK-MEL-5 melanoma.
Test [14] has as its system ACHN renal.
The test system of test [15] is SR leukemia.
Test [16] relates to T-47D breast.
For test [17], the system named is RPMI-8226 leukemia.
For test [18], the system named is NCI-H522 lung.

For the compound `CC(=O)Oc1cc2c(n(C)c1=O)CCC2`, the TGI in [1], in test [2], in [3], in [4], in test [5] and in [6] was > 100 µM each time. In addition, the TGI in test [7], in [8], in test [9], in test [10], in test [11] and in [12] was > 100 µM in each case. Also, the TGI in test [13] and in test [14] was > 100 µM in each case.

In the case of `O=C(NC(Cc1ccccc1)P(=O)(O)c1ccccc1)OCc1ccccc1` (stereo not given), the TGI in test [1], in test [3], in [4], in test [5], in test [6] and in [15] was > 100 µM each time. Further, the TGI in test [7], in test [8], in test [16], in test [17], in test [9] and in test [18] was > 100 µM throughout. Further, the TGI in [10], in test [11], in test [12], in test [13] and in test [14] was > 100 µM each time.

Turning to `NC(=O)N=Nc1c2ccccc2n2[nH]ccc12`, the TGI in test [1] is > 100 µM; in [2], > 100 µM; in test [3] it was > 100 µM; in [4], > 100 µM; in [5] it was > 100 µM; in test [6], 58.1 µM. In addition, the TGI in test [15] is > 100 µM; in test [7] it was > 100 µM; in test [16], 92.9 µM; in test [9], > 100 µM; in test [18], > 100 µM; in test [11], > 100 µM. Besides, the TGI in test [12], in [13] and in test [14] was > 100 µM in each case.

Take `C=[N+](CNC(=O)CNC(=O)C(Cc1ccccc1)NC(=O)OC(C)(C)C)C(=O)CNC(=O)C(Cc1ccccc1)NC(=O)OC(C)(C)C` (stereo not given): the TGI in test [1], in test [2], in test [3], in test [4], in test [5] and in test [15] was > 100 µM in each case. Besides, the TGI in test [7], in [8], in [16], in test [17], in [9] and in test [18] was > 100 µM throughout. Moreover, the TGI in [12], in test [13] and in test [14] was > 100 µM each time.

On to `O=c1[nH]c(=S)c2[nH]c(=O)n(-c3ccccc3)c2[nH]1`, for which the TGI in test [1], in test [2], in test [3], in [4], in test [5] and in [15] was > 100 µM each time. In addition, the TGI in [7], in [8], in test [9], in test [18], in test [10] and in test [11] was > 100 µM each time. Also, the TGI in [12], in [13] and in [14] was > 100 µM each time.

For `COc1cccc(-c2cc(=O)c3cc(N4CCCC4)ccc3[nH]2)c1`, the TGI was > 10 µM in test [1]; 0.598 µM in test [2]; 0.00128 µM in test [3]; > 10 µM in [4]; < 0.001 µM in [5]; < 0.001 µM in test [6]. Besides, the TGI in test [15] was < 0.001 µM; in test [7], > 10 µM; in test [8] it was > 10 µM; in [16], > 10 µM; in test [17], 2.44 µM; in test [9], > 10 µM. For the same compound, the TGI in test [18] is < 0.001 µM; in test [11], > 10 µM; in [12] it was > 10 µM; in [13], 0.00747 µM; in test [14] it was > 10 µM.

Regarding `CCCC(=O)Oc1cc(OC(=O)CCC)c2c(C)cc(=O)oc2c1`, the TGI is > 100 µM in [1]; > 100 µM in test [2]; > 100 µM in [3]; > 100 µM in [4]; > 100 µM in [5]; 76.9 µM in [15]. Further, the TGI in test [7], in test [8], in test [17], in test [9], in test [11] and in [12] was > 100 µM each time. Further, the TGI in test [13] and in test [14] was > 100 µM each time.

For `OCC1(CNc2cc(Cl)ncn2)CCC1`, the TGI in test [1], in [2], in [3], in test [4], in [5] and in test [6] was > 100 µM in each case. In addition, the TGI in test [15], in test [7], in test [8], in [17], in test [9] and in test [18] was > 100 µM throughout. Moreover, the TGI in test [10], in [11], in [12], in [13] and in test [14] was > 100 µM throughout.

For the compound `OCC(O)C(O)C(C=NNc1ncnc2ccc(Br)cc12)=NNc1ncnc2ccc(Br)cc12` (stereo not given), the TGI in test [1] was 23.7 µM and > 100 µM; in [2], 31.3 µM and > 100 µM; in test [3] it was 46.9 µM and > 100 µM; in [4], > 100 µM; in test [5], 76.9 µM and > 100 µM; in test [6] it was > 100 µM. Moreover, the TGI in test [7] was 10.4 µM and > 100 µM; in [8], 25.6 µM and > 100 µM; in test [16] it was 16.1 µM and > 100 µM; in test [17] it was > 100 µM; in test [9], > 100 µM; in [18], 11.3 µM and 35.9 µM. The TGI is > 100 µM in [11]; 60.7 µM and > 100 µM in [12]; 2.68 µM and 4.28 µM in [13]; 14.2 µM and > 100 µM in test [14].
